What all share (conditions): incubation time: 72 h
For experiment [1], the system named is BT-474. In words: drug sensitivity score (DSS), CellTox Green (DSS (AUC-based score)); higher = stronger drug effect (viability inhibition or cytotoxicity); extreme values may be limits of the assay. In a few lines:
(§1)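 Breast cancer cell lines (20 µl suspension) were seeded into 384-well plates holding compound at 5 concentrations in 10-fold steps over a compound-specific 10,000-fold range, then incubated 72 h. CellTox Green fluorescence (485/520 nm) was read first, then CellTiter-Glo luminescence after 10 min at room temperature. Each plate was normalised to 0.1 % DMSO and a positive kill control. The drug sensitivity score was calculated from the area under the fitted dose-response curve.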

Experiment [2] deals with BT-549. Described as above. In a few lines: as §1
Experiment [3] has as its system CAL-120. Described as above. In a few lines:
as §1

The subject of experiment [4] is CAL-148. Described as above. In a few lines:
as §1

Experiment [5] relates to CAL-51. The description is as above. In a few lines:
as §1

The subject of experiment [6] is CAL-85-1. Described as above. In a few lines: as §1
The subject of experiment [7] is DU-4475. Described as above. In a few lines:
as §1

Experiment [8] relates to HCC1143. The description is as above. In a few lines: as §1
Experiment [9] relates to HCC1599. The description is as above. In a few lines: as §1
The subject of experiment [10] is HCC1937. The description is as above. In a few lines: as §1
The subject of experiment [11] is HDQ-P1. The experiment is described as above. In a few lines:
as §1

Experiment [12] concerns Hs578T. The description is as above. In a few lines: as §1
For experiment [13], the system named is MCF-10A. The experiment is described as above. In a few lines:
as §1

In experiment [14] the test system is MDA-MB-231. The description is as above. In a few lines:
as §1

The test system of experiment [15] is MDA-MB-436. Described as above. In a few lines:
as §1

Experiment [16] has as its system MDA-MB-453. The description is as above. In a few lines:
as §1

Experiment [17] has as its system MDA-MB-468. Described as above. In a few lines:
as §1

Experiment [18] concerns MFM-223. The experiment is described as above. In a few lines:
as §1

Experiment [19] has as its system CAL-148. In words: normalised viability (% of control), CellTiter-Blue; higher = more viable cells (about 100 = DMSO control). As to the method:
(§2)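 DSRT, CellTiter-Blue viability, 72 h incubation. Signal is normalised to DMSO and benzethonium chloride controls. Value is the normalised response at dose 9.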

For experiment [20], the system named is CAL-51. Described as above. As for the experimental part: as §2
In experiment [21] the test system is CAL-85-1. The experiment is described as above. As for the experimental part: as §2
Experiment [22] has as its system DU-4475. The description is as above. As to the method: as §2
In experiment [23] the test system is HDQ-P1. The description is as above. As for the experimental part:
as §2

In experiment [24] the test system is MDA-MB-453. The experiment is described as above. As to the method: as §2
Experiment [25] has as its system DU-4475. The experiment in a line: normalised viability (% of control), CellTiter-Blue; higher = more viable cells (100 = DMSO, 0 = benzethonium chloride kill control). In a few lines: (§3)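 Breast cancer cell lines in 20 µl suspension were seeded onto 384-well plates pre-loaded with compound dissolved in 5 µl medium, then incubated 72 h. CellTiter-Blue reagent (2.5 µl) was added for 2 h at 37 °C and fluorescence read at 560/590 nm. Each plate was normalised to vehicle (100) and a positive kill control (0), with Z'-factor quality control. The value is normalised viability at one listed concentration of the series.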

In experiment [26] the test system is MDA-MB-468. The experiment is described as above. In a few lines: as §3

As to `C=CC(=O)N1CCC[C@@H](n2nc(-c3ccc(Oc4ccccc4)cc3)c3c(N)ncnc32)C1` [Ibrutinib], the drug sensitivity score in [1] was determined as 2.25; in experiment [2], 0; in [3] it was 0; in experiment [4], 0; in experiment [5], 0.377; in experiment [6], 4.71. Also, the drug sensitivity score in experiment [7] was determined as 0; in experiment [8], 0; in experiment [9], 0; in experiment [10], 0; in experiment [11], 0.282; in experiment [12], 0. Further, the drug sensitivity score came out at 0 in [13]; 0 in experiment [14]; 0 in [15]; 1.03 in experiment [16]; 0 in experiment [17]; 0 in experiment [18].
Turning to `CCN(CC)CCCC(C)Nc1c2ccc(Cl)cc2nc2ccc(OC)cc12` (stereo not drawn) [Mepacrine], the normalised viability is 35.4% in [19] (990 nM); 12.4% in [19] (10000 nM); 34.9% in experiment [20] (990 nM); 12.3% in [20] (10000 nM); 44.1% in experiment [21] (990 nM); 15.1% in experiment [21] (10000 nM). Further, the normalised viability worked out at 30.9% in experiment [22] (990 nM); 4.09% in [22] (10000 nM); 23.8% in experiment [23] (990 nM); 6.19% in [23] (10000 nM); 15.7% in experiment [24] (990 nM); 2.2% in experiment [24] (10000 nM). Moreover, the normalised viability in [25] (0.099 nM) was 93.5%; in [25] (1 nM), 111%; in [26] (0.099 nM), 108%; in experiment [26] (1 nM), 101%. The drug sensitivity score in experiment [1], in experiment [2], in experiment [3], in [4], in experiment [5] and in [6] was 0 each time. Moreover, the drug sensitivity score in experiment [7], in experiment [8], in [9], in experiment [10], in experiment [11] and in experiment [13] was 0 each time. The drug sensitivity score in experiment [14] was found to be 5; in [15] it was 0; in experiment [16], 0; in [17] it was 0.235; in [18], 0.
As to `C=CCc1cccc(/C=N/NC(=O)CN2CCN(Cc3ccccc3)CC2)c1O` [PAC-1], the drug sensitivity score was 1 in experiment [1]; 8.49 in experiment [2]; 0 in experiment [3]; 0 in experiment [4]; 4.72 in [5]; 0 in experiment [6]. For the same molecule, the drug sensitivity score in [7], in [8], in experiment [9], in [10], in experiment [11] and in [12] was 0 throughout. The drug sensitivity score in experiment [13], in [14], in experiment [15], in [16], in experiment [17] and in experiment [18] was 0 throughout.
As to `CC[C@H](C)C(=O)O[C@H]1C[C@H](O)C=C2C=C[C@H](C)[C@H](CC[C@@H](O)C[C@@H](O)CC(=O)O)[C@H]21` [Pravastatin], the drug sensitivity score came to 0 in experiment [1]; 0.618 in [2]; 0 in experiment [3]; 0 in [4]; 5.33 in experiment [5]; 0 in experiment [6]. The drug sensitivity score in experiment [7], in experiment [8], in experiment [9], in [10], in [11] and in [12] was 0 each time. In addition, the drug sensitivity score stood at 2.17 in experiment [13]; 4.52 in experiment [14]; 32.8 in [15]; 0 in experiment [16]; 2.44 in experiment [17]; 0 in experiment [18].
As to `Cc1cnc(NC(=O)Nc2cc(Br)c(C)cc2OC[C@@H]2CNCCO2)cn1` [Rabusertib], the drug sensitivity score in experiment [1] amounted to 0; in experiment [2], 0; in experiment [3], 0; in experiment [4] it was 0.673; in [5] it was 0; in experiment [6] it was 0. The drug sensitivity score in experiment [7], in experiment [8], in experiment [9], in [10], in experiment [11] and in experiment [12] was 0 each time. For the same molecule, the drug sensitivity score in [13], in experiment [14], in experiment [15], in experiment [16], in experiment [17] and in experiment [18] was 0 in each case.
Take `CNC(=O)c1cc(Oc2ccc(NC(=O)Nc3cc(C(C)(C)C)nn3-c3ccc4ncccc4c3)c(F)c2)ccn1` [Rebastinib]: the drug sensitivity score in experiment [1] was 0; in experiment [2] it was 0; in experiment [3] it was 0; in experiment [4], 0; in experiment [5] it was 0; in experiment [6], 2.09. Also, the drug sensitivity score came out at 0 in experiment [7]; 0 in experiment [8]; 0 in experiment [9]; 0 in [10]; 4.01 in experiment [11]; 0 in experiment [12]. In addition, the drug sensitivity score in experiment [13], in experiment [14], in experiment [15], in experiment [16], in [17] and in experiment [18] was 0 each time.
Consider `C1CN1c1nc(N2CC2)nc(N2CC2)n1` [Triethylenemelamine], for which the normalised viability is 80% in experiment [19] (10000 nM); 60.5% in experiment [20] (10000 nM); 72.8% in experiment [21] (10000 nM); 95.9% in experiment [22] (10000 nM); 101% in experiment [23] (10000 nM); 40.9% in experiment [24] (10000 nM). Also, the values for the normalised viability in [25] (1 nM) and in experiment [26] (1 nM) were 104% and 102%, respectively.
`COc1cc2c(NC3CCN(C(C)C)CC3)nc(C3CCCCC3)nc2cc1OCCCN1CCCC1` [UNC0638]: the drug sensitivity score in experiment [1] worked out at 7.51; in [2], 8.31; in experiment [3], 6.94; in [4], 6.35; in experiment [5], 9.03; in experiment [6] it was 6.93. Besides, the drug sensitivity score came to 0 in [7]; 0 in experiment [8]; 1.89 in experiment [9]; 7.61 in experiment [10]; 1.42 in [11]; 7.41 in [13]. The drug sensitivity score turned out to be 9.02 in experiment [14]; 4.24 in experiment [15]; 6.8 in experiment [16]; 7.09 in experiment [17]; 3.4 in [18].

The values above are taken from the supplement of paper PMC4862054.
